Bridge positions count the residues as written; N and C are the ends. Square brackets hold non-standard residues; d marks the D form. Peptide text beside a SMILES is read from it. * marks the point of attachment. ξ: configuration not given here. Ac6c(4-Ph-cis-to-N) = N[C@]1(C(=O)O)CC[C@H](c2ccccc2)CC1; Pentanoyl = CCCCC(=O)*; ξK = NCCCCC(N)C(=O)O
Target: T1, MC-4 receptor (Homo sapiens, UniProt P32245)
T1 construct: expressed in transfected cells; host or cells: HEK 293 cells (G418 selected)
Test: Agonist assay: cAMP response in HEK 293 cells transfected with the MC-4 receptor (Biotrak-cAMP SPA)
Format: cell-based
Details: HEK 293 cells transfected with MC-4 receptor, cAMP increase; read-out: EC50 for MC4-R agonist activity
Experimental: Description: HEK 293 cells transfected with either the MC-4 receptor or MC-1 receptor were grown in 96 well plates. The cells were stimulated with either 100 nM NDP-αMSH or screening compounds. Cyclic AMP was extracted from the cells and concentrations were determined using a Biotrak-cAMP SPA assay. Agonists were identified as those compounds causing an increase in cAMP.
Cell Culture: HEK 293 cells transfected with either the MC-4 receptor or MC-1 receptor were cultured in 75 cm^2 flasks in D-MEM supplemented with 10% FCS and 500 μg/ml G418. Cells were trypsinized and split 1:3 into 96 well flat-bottom tissue culture treated plates. Cells were stimulated at confluence (day 2-4).
cAMP Response: Compounds serially diluted in 100% DMSO were further diluted 1:200 (2.5 μl compound dilution +500 μl media) in D-MEM containing 10% FBS and 0.1 mM IBMX. For unstimulated cells, 2.5 μl of DMSO was added to 500 μl of media. For NDP-αMSH stimulated cells, 2.5 μl of 20μM NDP-αMSH in 100% DMSO was added to 500μl of media (final conc. 100 nM). Final concentration of DMSO in all wells was 0.5%.
Note: Each sample was run in duplicate on separate plates. […]
cAMP Assay: The extracted samples and all reagents included in the kit were brought to room temperature. […] [125I ]cAMP binding to the SPA beads was determined by counting each plate for 2 minutes on a Packard TopCount™. […]

T1 sequence (P32245 whole entry): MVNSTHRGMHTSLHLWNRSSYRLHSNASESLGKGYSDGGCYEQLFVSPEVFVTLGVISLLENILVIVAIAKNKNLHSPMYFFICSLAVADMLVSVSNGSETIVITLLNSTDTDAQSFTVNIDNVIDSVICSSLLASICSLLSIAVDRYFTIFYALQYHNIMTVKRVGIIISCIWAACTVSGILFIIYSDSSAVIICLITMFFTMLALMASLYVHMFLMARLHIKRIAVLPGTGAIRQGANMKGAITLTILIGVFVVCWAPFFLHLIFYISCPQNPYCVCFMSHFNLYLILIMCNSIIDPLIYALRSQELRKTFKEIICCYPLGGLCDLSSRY

Compound: CCCCC(=O)N[C@H]1CC(=O)NCCCCC(C(N)=O)NC(=O)[C@H](Cc2c[nH]c3ccccc23)NC(=O)[C@H](C)NC(=O)[C@@H](Cc2ccccc2)NC(=O)[C@]2(CC[C@H](c3ccccc3)CC2)NC1=O (stereo partly drawn) [Penta-cyclo(Asp-Lys)-Asp-Apc-(D)Phe-Ala-Trp-Lys-NH2] (Pentanoyl-D[Ac6c(4-Ph-cis-to-N)][dF]AW[ξK]-NH2; lactam 1-6)
- EC50: < 0.5 µM

From patent publication US7045591B2, “Selective cyclic peptides with melanocortin-4 receptor (MC4-R) agonist activity” (Hoffmann-La Roche Inc., priority 2000, dated 2006)
